Where a SMILES comes first, the peptide text is derived from it. [ ]: non-standard residue; d: D form. NMeF = CN[C@@H](Cc1ccccc1)C(=O)O; dNMeF = CN[C@H](Cc1ccccc1)C(=O)O; NMeL = CN[C@@H](CC(C)C)C(=O)O; dNMeL = CN[C@H](CC(C)C)C(=O)O; NMeV = CN[C@H](C(=O)O)C(C)C; NMeA = CN[C@@H](C)C(=O)O; dNMeA = CN[C@H](C)C(=O)O; Sar = CNCC(=O)O
Conditions: PAMPA

Row | SMILES | PAMPA_Papp_Avg (apparent permeability)
1 | CC[C@H](C)[C@@H]1NC(=O)[C@@H](C(C)C)NC(=O)[C@@H](CC(C)C)N(C)C(=O)[C@H]2CCCN2C(=O)[C@@H](CC(C)C)NC(=O)[C@@H](CC(C)C)N(C)C(=O)[C@H](CC(C)C)NC(=O)[C@H]2CCCN2C(=O)[C@H](C)N(C)C(=O)[C@H]2CCCN2C1=O [Design D10.41, p*lvIp*ApL*ll] (cyclo(I[dP][NMeA][dP]L[dNMeL][dL][dP][dNMeL][dV])) | 56.9 nm/s
2 | CC(C)C[C@H]1NC(=O)[C@@H](C(C)C)NC(=O)[C@H](CC(C)C)N(C)C(=O)[C@@H](Cc2ccccc2)NC(=O)[C@H](CC(C)C)N(C)C(=O)[C@H]2CCCN2C(=O)[C@@H]2CCCN2C(=O)[C@H]2CCCN2C(=O)[C@@H](C(C)C)NC(=O)[C@H]2CCCN2C1=O [Design D10.42, vlpvpPp*Lf*L] (cyclo([dP][NMeL][dF][NMeL][dV][dL][dP][dV][dP]P)) | 7.1 nm/s
3 | CC(C)C[C@@H]1C(=O)N[C@@H](C)C(=O)N[C@H](CC(C)C)C(=O)N2CCC[C@H]2C(=O)N[C@H](C)C(=O)N2CCC[C@@H]2C(=O)N2CCC[C@H]2C(=O)N[C@H](C(C)C)C(=O)N[C@H](CC(C)C)C(=O)N(C)[C@H](CC(C)C)C(=O)N1C [Design D10.43, apPvl*l*LAlP] (cyclo([dV][dL][dNMeL][dNMeL]A[dL]P[dA][dP]P)) | 1.61 nm/s
4 | CC[C@H](C)[C@@H]1NC(=O)[C@@H](Cc2ccccc2)NC(=O)[C@@H](C)NC(=O)[C@@H](C(C)C)NC(=O)[C@H](CCSC)NC(=O)[C@@H]2CCCN2C(=O)[C@H]2CCCN2C(=O)[C@@H]2CCCN2C(=O)[C@@H](C)N(C)C(=O)[C@@H](CC(C)C)N(C)C1=O [Design D10.45, vafI*l*aPpPM] (cyclo(M[dV][dA][dF]I[dNMeL][dNMeA]P[dP]P)) | 4.87 nm/s
5 | CC(C)C[C@@H]1NC(=O)[C@H](C)NC(=O)[C@@H]2CCCN2C(=O)[C@H]2CCCN2C(=O)[C@H](Cc2ccccc2)NC(=O)[C@H]2CCCN2C(=O)[C@@H](Cc2ccccc2)N(C)C(=O)[C@@H]2CCCN2C(=O)[C@@H](C)NC(=O)[C@H](CC(C)C)NC1=O [Design D10.49, aP*fpFpPALL] (cyclo(ALL[dA]P[dNMeF][dP]F[dP]P)) | 1.7 nm/s
6 | CC[C@@H](C)[C@H]1NC(=O)[C@H](Cc2ccccc2)N(C)C(=O)[C@@H](CC(C)C)N(C)C(=O)[C@H](C(C)C)NC(=O)[C@H](C)NC(=O)[C@@H]2CCCN2C(=O)[C@H](CC(C)C)N(C)C(=O)[C@@H](Cc2ccccc2)N(C)C(=O)[C@H](C)N(C)C(=O)[C@H](C)N(C)C1=O [Design D10.56, *f*LPAV*l*Fi*A*A] (cyclo(AV[dNMeL][NMeF][dI][NMeA][NMeA][dNMeF][NMeL]P)) | 90.2 nm/s
7 | CC(C)C[C@@H]1NC(=O)[C@@H](CC(C)C)N(C)C(=O)[C@@H]2CCCN2C(=O)[C@H](CC(C)C)N(C)C(=O)[C@@H](C)NC(=O)[C@@H](CC(C)C)N(C)C(=O)[C@@H]2CCCN2C(=O)CN(C)C(=O)[C@H](CC(C)C)N(C)C(=O)[C@H](Cc2ccccc2)NC1=O [Design D10.57, *L*GP*la*LP*lLF] (cyclo(F[NMeL][Sar]P[dNMeL][dA][NMeL]P[dNMeL]L)) | 30.5 nm/s
8 | C[C@H]1NC(=O)[C@@H](Cc2ccccc2)NC(=O)[C@H](Cc2ccccc2)N(C)C(=O)[C@H](Cc2ccccc2)N(C)C(=O)[C@@H](Cc2ccccc2)NC(=O)[C@H]2CCCN2C(=O)CNC(=O)[C@@H](C)NC(=O)[C@@H]2CCCN2C(=O)[C@@H](Cc2ccccc2)NC1=O [Design D10.62, aGpf*F*FfafP] (cyclo(G[dP][dF][NMeF][NMeF][dF][dA][dF]P[dA])) | 42.3 nm/s
9 | CC[C@@H](C)[C@H]1NC(=O)[C@@H]2CCCN2C(=O)[C@@H]([C@H](C)CC)NC(=O)[C@@H](C)N(C)C(=O)[C@H](CC(C)C)NC(=O)[C@@H](Cc2ccccc2)NC(=O)[C@H](CC(C)C)N(C)C(=O)[C@H]2CCCN2C(=O)[C@@H](CC(C)C)NC(=O)[C@H](CC(C)C)NC(=O)[C@H]2CCCN2C1=O [Design D11.1, ipLlp*LfL*aiP] (cyclo(L[dL][dP][NMeL][dF]L[dNMeA][dI]P[dI][dP])) | 34.8 nm/s
10 | CC[C@@H](C)[C@H]1NC(=O)[C@@H](CC(C)C)NC(=O)[C@H](C(C)C)NC(=O)[C@@H](CC(C)C)N(C)C(=O)[C@@H]2CCCN2C(=O)[C@H](C)NC(=O)[C@H](CC(C)C)N(C)C(=O)[C@H]2CCCN2C(=O)[C@H](C)N(C)C(=O)[C@@H](CC(C)C)N(C)C(=O)[C@@H]2CCCN2C1=O [Design D11.5, AP*lVliP*l*Ap*L] (cyclo(AP[dNMeL]V[dL][dI]P[dNMeL][NMeA][dP][NMeL])) | 28.1 nm/s
11 | CC[C@H](C)[C@@H]1NC(=O)[C@H](C(C)C)N(C)C(=O)[C@H]2CCCN2C(=O)[C@H]([C@@H](C)CC)NC(=O)[C@@H](CC(C)C)N(C)C(=O)[C@@H](C)NC(=O)[C@@H]2CCCN2C(=O)[C@H]2CCCN2C(=O)[C@H](CC(C)C)NC(=O)[C@@H](Cc2ccccc2)NC(=O)[C@H](CC(C)C)NC(=O)[C@H]2CCCN2C1=O [Design D12.3, p*VIpLfLpPa*lI] (cyclo([dA][dNMeL]I[dP][NMeV]I[dP]L[dF]L[dP]P)) | 7.89 nm/s
12 | CC(C)C[C@@H]1NC(=O)[C@@H](CC(C)C)N(C)C(=O)[C@@H](CC(C)C)N(C)C(=O)[C@@H](CC(C)C)N(C)C(=O)[C@H](CC(C)C)NC(=O)[C@@H]2CCCN2C(=O)[C@H]2CCCN2C(=O)[C@H](Cc2ccccc2)NC1=O [SEQ ID NO 47, FpPL*l*l*lL] (cyclo(L[dNMeL][dNMeL][dNMeL]LF[dP]P)) | 12.7 nm/s
